Experimental findings from patent US20250002527A1, “STEROID COMPOUND AND CONJUGATE THEREOF” (DUALITY BIOLOGICS (SUZHOU) CO., LTD., priority 2021, published 2025) are described below.

Molecules are shown by their SMILES. Where only a bound is given, the exact number is not on record here.

Holding throughout (type): cell-based
The target of one test is T1, ERα (Homo sapiens, UniProt P03372).
T1 sequence (P03372 311-547 limits assumed): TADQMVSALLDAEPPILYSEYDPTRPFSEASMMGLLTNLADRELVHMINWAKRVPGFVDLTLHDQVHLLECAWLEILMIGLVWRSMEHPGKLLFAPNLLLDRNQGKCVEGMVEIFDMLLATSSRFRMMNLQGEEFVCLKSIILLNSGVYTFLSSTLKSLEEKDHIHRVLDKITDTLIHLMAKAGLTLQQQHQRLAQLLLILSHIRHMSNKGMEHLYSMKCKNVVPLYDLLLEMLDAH
Description: ERα luciferase reporter gene experiment. As to conditions: HEK293 transfected with pBIND-ERα. As to the method:
(§1) HEK293 cells were cultured in DMEM+10% FBS medium in a carbon dioxide incubator humidified at 37° C. at 5% carbon dioxide.
(§2) • 1) HEK293 cells were trypsinized, and the HEK293 cell resuspension was adjusted to 200,000 cell/mL in medium (96 well plate: 100 μL/well). • 2) Transfection reagent mixtures were prepared according to the table below, mixed well and left at room temperature for 20 minutes.
(§3) • 3) The prepared transfection mixtures were added to 10 mL of the cell density-adjusted resuspension, mixed well by turning the mixtures upside down, and seeded into a 96-well plate at a volume of 100 μL/well. • 4) The 96-well plate was incubated in a humidified incubator at 37° C. and 5% carbon dioxide for 24 hours.
(§4) The test plate was detected using the Dual-Glo Luciferase Assay System kit from Promega, and the fluorescence signal of Firefly Luciferase and the fluorescence signal of Renilla Luciferase were read using Enspire, respectively.
(§5) Y is the agonism and X is the concentration of the compound.
For orientation: A reporter such as luciferase makes a cellular process visible.

Another test addresses T2, MR (Homo sapiens, UniProt P08235).
T2 construct: expressed in transfected cells; host or cells: HEK293
T2 sequence (P08235 1-984): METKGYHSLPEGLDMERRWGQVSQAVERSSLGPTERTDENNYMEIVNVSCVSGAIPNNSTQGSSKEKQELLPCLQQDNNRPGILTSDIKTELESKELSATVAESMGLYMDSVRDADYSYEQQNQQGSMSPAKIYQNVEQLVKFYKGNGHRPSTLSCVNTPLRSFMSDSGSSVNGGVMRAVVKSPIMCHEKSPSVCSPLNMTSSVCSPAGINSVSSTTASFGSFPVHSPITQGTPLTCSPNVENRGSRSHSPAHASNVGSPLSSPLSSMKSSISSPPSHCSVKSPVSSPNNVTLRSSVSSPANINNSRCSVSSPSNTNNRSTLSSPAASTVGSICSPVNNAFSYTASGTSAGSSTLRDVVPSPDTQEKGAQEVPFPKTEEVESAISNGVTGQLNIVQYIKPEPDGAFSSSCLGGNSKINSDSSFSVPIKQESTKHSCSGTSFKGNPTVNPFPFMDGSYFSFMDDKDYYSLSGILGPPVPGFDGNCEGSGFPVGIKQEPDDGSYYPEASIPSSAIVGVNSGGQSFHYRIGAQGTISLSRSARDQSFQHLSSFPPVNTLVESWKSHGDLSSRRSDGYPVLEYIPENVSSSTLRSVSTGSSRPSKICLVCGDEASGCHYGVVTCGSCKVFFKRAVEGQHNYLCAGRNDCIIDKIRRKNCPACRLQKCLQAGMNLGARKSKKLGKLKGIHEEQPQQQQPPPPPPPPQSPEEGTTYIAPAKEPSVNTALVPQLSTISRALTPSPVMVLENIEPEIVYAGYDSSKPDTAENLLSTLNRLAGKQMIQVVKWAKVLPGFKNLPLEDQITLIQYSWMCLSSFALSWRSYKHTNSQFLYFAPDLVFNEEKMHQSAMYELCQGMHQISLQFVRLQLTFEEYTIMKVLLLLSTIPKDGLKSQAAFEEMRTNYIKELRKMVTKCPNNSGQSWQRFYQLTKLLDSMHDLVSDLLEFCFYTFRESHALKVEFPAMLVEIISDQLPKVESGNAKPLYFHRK
As to the kind of experiment: MR luciferase reporter gene experiment. As to conditions: HEK293 transfected with pBIND-MR. Here is the method: as §1, §2, §3, §4, §5

Test [1] has as its target T3, glucocorticoid receptor (Homo sapiens, UniProt P04150).
T3 construct: expressed in transfected cells; host or cells: HEK293
T3 sequence (P04150 1-777): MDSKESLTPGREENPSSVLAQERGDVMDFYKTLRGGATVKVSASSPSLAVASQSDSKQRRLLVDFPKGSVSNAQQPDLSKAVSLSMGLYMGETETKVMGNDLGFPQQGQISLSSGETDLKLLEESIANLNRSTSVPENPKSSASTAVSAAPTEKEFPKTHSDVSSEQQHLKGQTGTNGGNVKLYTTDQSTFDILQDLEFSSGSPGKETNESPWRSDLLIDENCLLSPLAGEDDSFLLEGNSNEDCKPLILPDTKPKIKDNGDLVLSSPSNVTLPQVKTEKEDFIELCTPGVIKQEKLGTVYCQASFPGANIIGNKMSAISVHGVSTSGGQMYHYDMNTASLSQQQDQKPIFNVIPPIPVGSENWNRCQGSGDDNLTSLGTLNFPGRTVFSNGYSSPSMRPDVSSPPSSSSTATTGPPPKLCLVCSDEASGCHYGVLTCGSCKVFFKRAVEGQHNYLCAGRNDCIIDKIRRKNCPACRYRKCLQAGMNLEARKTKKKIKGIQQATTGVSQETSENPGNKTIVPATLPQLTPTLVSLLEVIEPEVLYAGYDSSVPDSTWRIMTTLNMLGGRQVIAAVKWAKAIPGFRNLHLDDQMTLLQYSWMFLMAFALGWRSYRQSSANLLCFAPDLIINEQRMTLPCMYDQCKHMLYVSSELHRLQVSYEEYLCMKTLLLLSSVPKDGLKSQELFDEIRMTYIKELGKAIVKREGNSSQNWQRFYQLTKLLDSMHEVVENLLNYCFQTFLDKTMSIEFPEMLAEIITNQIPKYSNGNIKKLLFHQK
Description: Measurement 1 of glucocorticoid receptor reporter gene GRE activity. As to conditions: HEK293 transfected with pGL5 and pBIND-GR, 24 hours. As to the method:
as §1
The prepared transfection mixtures were added to 10 mL of the cell density-adjusted resuspension, mixed well by turning the mixtures upside down, and seeded into a 96-well plate at a volume of 100 μL/well.
as §4
The final measurement value was a normalized value “F/R” obtained by dividing the Firefly Luciferase fluorescent signal by the Renilla Luciferase fluorescent signal.
The data were copied and pasted into Excel, and the activation rate was obtained through an equation.
The data were imported into MS Excel and subjected to curve fitting by using XLFit excel add-in version 5.4.0.8 to obtain an EC50 value.
as §5

A further test has as its system human PBMC cells. Description: IFN-α secretion from PBMC under R848 stimulation (compounds). As to conditions: R848 5 μM, 24 hours, mean ± standard deviation. Here is the method:
The compounds of the present application were tested for their inhibitory effect on the production of peripheral blood monocytes. The peripheral blood monocytes were treated in vitro with the ligand-drug conjugate at different concentrations, and IFNα and TNFα generated by the peripheral blood monocytes were quantitatively detected after a certain time. The compounds of the present invention were evaluated for in-vitro activity.
The cryopreserved human PBMC cells were resuspended in a complete medium and counted, and the cell suspension was adjusted to 2.5×10*6 cells/mL with the culture medium. After the suspension was centrifuged to collect the cells the next day, the cells were resuspended using fresh culture medium. Test compounds were diluted to 4-fold final concentration in cell culture medium, 50 μL of the compounds were added into a 96-well cell plate, and 100 μL of diluted cells ([…]) were added into each well of the 96-well plate containing the compounds, followed by addition of 50 μL R848 to a final concentration of 5 μM. The cell plate was incubated at 37° C. with 5% CO2 for 24 hours. The supernatant was collected, and the TNF-α and IFN-α concentration levels in the supernatant were detected using an ELISA kit.
50 μL of biotinylated antibody working solution was added into each well. After mixing well, the plate was covered with the plate-sealing membrane and incubated at room temperature for 3 hours. […] The procedure was repeated for 3 times. 100 μL of Streptavidin-HRP working solution was added into each well. The plate was covered with the plate-sealing membrane and incubated at room temperature for 20 minutes. The plate was washed for 3 times, 100 μL of TMB liquid was added into each well, and the plate was incubated for 25 minutes at room temperature (18-25° C.) in the dark. The reaction was stopped by adding 100 μL stop solution rapidly to each well. The reading at a wavelength of 450 nm was detected by an M2e instrument within 10 minutes after termination.
The contents of TNF-α and IFN-α were calculated from the OD450 values.

In test [2] the target is T3, glucocorticoid receptor. Description: Measurement 2 of glucocorticoid receptor reporter gene GRE activity (HEK293 GRE cells). As to conditions: 24 hours.

As a reminder, the EC50 is the concentration that produces a half-maximal response.

On to `C[C@]12C=CC(=O)C=C1CC[C@@H]1[C@@H]2[C@@H](O)C[C@@]2(C)[C@H]1C[C@H]1O[C@@H](c3ccc(Cc4cccc(CO)c4)cc3)O[C@]12C(=O)CO` [Compound 3], for which the EC50 at ERα and on MR was more than 1000 nM each time.

In turn, `C[C@]12C=CC(=O)C=C1CC[C@@H]1[C@@H]2[C@@H](O)C[C@@]2(C)[C@H]1C[C@H]1O[C@H](c3ccc(Cc4ccc(CO)cc4)cc3)O[C@]12C(=O)CO` [Compound 4S] came in with an EC50 on glucocorticoid receptor [1] of 1.42 nM.

As to `C[C@]12C=CC(=O)C=C1CC[C@@H]1[C@@H]2[C@@H](O)C[C@@]2(C)[C@H]1C[C@H]1O[C@@H](c3ccc(Cc4ccc(CO)c(N)c4)cc3)O[C@]12C(=O)CO` [Compound 6], the entries for the “IFN-α secretion (pg/mL) from PBMC under R848 stimulation” value in the test on human PBMC cells (compound 4 nM), in the test with human PBMC cells (compound 20 nM) and with human PBMC cells (compound 100 nM) were 99.8 ± +5.7 pg/mL, 45.9 ± 45.9 pg/mL and 6.9 ± 6.9 pg/mL, respectively. Further, on glucocorticoid receptor [2], the EC50 came out at 0.12 nM.
